We go through 13 compounds from patent US20240199647A1, “ANTI-VIRAL COMPOUNDS” (Aligos Therapeutics, Inc., priority 2022, published 2024).

Molecules are shown by their SMILES. Read-outs that look alike come from different tables or passages of the source. Some results are limits rather than exact numbers.

One data set deals with SARS-Cov-2 3CLpro (Severe acute respiratory syndrome coronavirus 2, UniProt P0DTD1). As to the kind of experiment: biochemical. The settings on record: Table A, read-out: SARS-Cov-2 (IC50).
Another data set can be described thus: in vitro. The settings on record: human.
Data set [1] concerns SARS-CoV-2 B.1.1.7 lineage. As to the kind of experiment: microbe, parasite or virus in culture. The class given is cell-based. The note with it: Severe acute respiratory syndrome coronavirus 2, Table C, SARS-CoV-2 B.1.1.7 in A549-dual_ACE2_TMPRSS2 cells, read-out: A549-dual_ACE2_TMPRSS2 (EC50).

Take `CN(C(=O)[C@H](CC1CC1)NC(=O)C(F)(F)F)[C@@H](CC1CC1)C(=O)N1C[C@@]2(C[C@@H]1C#N)C(=O)NCc1ccccc12` (single isomer, unassigned) [Compound 123]: the 50% inhibitory concentration (IC50) – broadly, the midpoint of a concentration-inhibition curve – on SARS-Cov-2 3CLpro (cells given as a bound) is greater than 2 µM.

For the compound `CC(C)C[C@@H](C(=O)N1C[C@@]2(CCCNC2=O)C[C@H]1C#N)N(C)C(=O)[C@H](C)NC(=O)C(F)(F)F` [Compound 9, (S)—N—((S)-1-((3S,5R)-3-cyano-6-oxo-2,7-diazaspiro[4.5]decan-2-yl)-4-methyl-1-oxopentan-2-yl)-N-methyl-2-(2,2,2-trifluoroacetamido)propanamide], the CC50 in “in vitro” is greater than 1 µM. Also, the EC50 (commonly the concentration at which the effect is half-maximal) in data set [1] (class symbols) was in the range of 1 to 10 µM. On SARS-Cov-2 3CLpro (class symbols), the concentration for half-maximal inhibition (IC50) was 20 to 100 µM.

With `CC(C)C[C@@H](C(=O)N1C[C@]2(C[C@H]1C#N)C(=O)NC(=O)N2C)N(C)C(=O)[C@H](C)NC(=O)C(F)(F)F` [Compound 10, (S)—N—((S)-1-((5R,8S)-8-cyano-1-methyl-2,4-dioxo-1,3,7-triazaspiro[4.4]nonan-7-yl)-4-methyl-1-oxopentan-2-yl)-N-methyl-2-(2,2,2-trifluoroacetamido)propanamide], the CC50 in “in vitro” was greater than 1 µM. Besides, the EC50 in data set [1] (class symbols) fell in the range of 1 to 10 µM. In addition, the IC50 on SARS-Cov-2 3CLpro (class symbols) fell in the range of 0.2 to 2 µM.

In the data set “in vitro”, `CC(C)C[C@@H](C(=O)N1C[C@@]2(C[C@H]1C#N)Oc1ccc(F)cc1NC2=O)N(C)C(=O)[C@H](C)NC(=O)C(F)(F)F` [Compound 14a, (S)—N—((S)-1-((2R,5'S)-5′-cyano-6-fluoro-3-oxo-3,4-dihydrospiro[benzo[b][1,4]oxazine-2,3′-pyrrolidin]-1′-yl)-4-methyl-1-oxopentan-2-yl)-N-methyl-2-(2,2,2-trifluoroacetamido)propanamide] yielded a CC50 greater than 1 µM. The EC50 in data set [1] (class symbols) lay in the range of 0.1 to 1 µM.

Compound `CC(C)C[C@H](C(=O)N1C[C@@]2(C[C@H]1C#N)Oc1ccc(F)cc1NC2=O)N(C)C(=O)[C@H](C)NC(=O)C(F)(F)F` [Compound 14b, (S)—N—((R)-1-((2R,5'S)-5′-cyano-6-fluoro-3-oxo-3,4-dihydrospiro[benzo[b][1,4]oxazine-2,3′-pyrrolidin]-1′-yl)-4-methyl-1-oxopentan-2-yl)-N-methyl-2-(2,2,2-trifluoroacetamido)propanamide] displayed a CC50 in “in vitro” greater than 1 µM. Moreover, the EC50 in data set [1] (cells given as a bound) was greater than 1 µM.

The compound `C[C@H](NC(=O)C(F)(F)F)C(=O)N[C@@H](CC(C)(C)C)C(=O)N1C[C@@]2(C[C@H]1C#N)Oc1cc(F)cc(F)c1NC2=O` [Compound 68] yielded a CC50 in the data set “in vitro” greater than 1 µM. Moreover, the half-maximal effective concentration (EC50) in data set [1] (cells given as a bound) is greater than 1 µM. At SARS-Cov-2 3CLpro (class symbols), the half-maximal inhibitory concentration (IC50) was 0.02 to 0.2 µM.

On to `CC([C@H](NC(=O)C(F)(F)F)C(=O)N(C)[C@@H](CC1CC1)C(=O)N1C[C@@]2(C[C@H]1C#N)Oc1cccnc1NC2=O)C(C)(C)C` (stereo partly drawn) [Compound 234], for which the IC50 on SARS-Cov-2 3CLpro (class symbols) is less than 0.02 µM.

In the case of `C[C@H](NC(=O)C(F)(F)F)C(=O)N(C)[C@@H](CC1CC1)C(=O)N1C[C@@]2(C[C@H]1C#N)Oc1c(cccc1OC(F)(F)F)NC2=O` [Compound 235], on SARS-Cov-2 3CLpro (class symbols), the half-inhibitory concentration (IC50) was less than 0.02 µM.

Take `CN(C(=O)[C@H](CCCN)NC(=O)C(F)(F)F)[C@@H](CC1CC1)C(=O)N1C[C@@]2(C[C@H]1C#N)Oc1cccnc1NC2=O` [Compound 236]: at SARS-Cov-2 3CLpro (class symbols), the concentration for half-maximal inhibition (IC50) is less than 0.02 µM.

With `CN(C(=O)c1cc2ccccc2c(=O)[nH]1)[C@@H](CC1CC1)C(=O)N1C[C@@]2(C[C@H]1C#N)Oc1cccnc1NC2=O` [Compound 237], at SARS-Cov-2 3CLpro (class symbols), the half-maximal inhibitory concentration (IC50) lay within 0.2 to 2 µM.

With `CN(C(=O)[C@H](CC1CC1)NC(=O)C(F)(F)Cl)[C@@H](CC1CC1)C(=O)N1C[C@@]2(C[C@H]1C#N)Oc1ncccc1NC2=O` [Compound 238], the half-maximal inhibitory concentration (IC50) on SARS-Cov-2 3CLpro (class symbols) was less than 0.02 µM.

Consider `CO[C@H](C)[C@H](NC(=O)C(F)(F)F)C(=O)N(C)[C@@H](CC1CC1)C(=O)N1C[C@@]2(C[C@H]1C#N)Oc1cccnc1NC2=O` [Compound 239], for which, on SARS-Cov-2 3CLpro (class symbols), the half-maximal inhibitory concentration (IC50) was less than 0.02 µM.

With `CO[C@H](C)[C@H](NC(=O)C(F)(F)F)C(=O)N(C)[C@@H](CC1CC1)C(=O)N1C[C@@]2(C[C@H]1C#N)Oc1ncccc1NC2=O` [Compound 240], the IC50 at SARS-Cov-2 3CLpro (class symbols) was less than 0.02 µM.
